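Briefly, cells in 96-well plates were exposed to five compound concentrations for 48 h, and endpoints were estimated by linear interpolation. TGI is the concentration that stops growth completely.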
Experiments:
Assay in all cases: NCI-60 cell line screen, 48 h
786-0 renal = test system: 786-0 renal
A498 renal = test system: A498 renal
A549 NSCLC = test system: A549 NSCLC
ACHN renal = test system: ACHN renal
BT-549 breast = test system: BT-549 breast
CAKI-1 renal = test system: CAKI-1 renal
CCRF-CEM leukemia = test system: CCRF-CEM leukemia
COLO 205 colon = test system: COLO 205 colon
DU-145 prostate = test system: DU-145 prostate
EKVX NSCLC = test system: EKVX NSCLC
HCC-2998 colon = test system: HCC-2998 colon
HCT-116 colon = test system: HCT-116 colon
HCT-15 colon = test system: HCT-15 colon
HL-60(TB) leukemia = test system: HL-60(TB) leukemia
HOP-62 NSCLC = test system: HOP-62 NSCLC
HOP-92 NSCLC = test system: HOP-92 NSCLC
HS 578T breast = test system: HS 578T breast
HT29 colon = test system: HT29 colon
IGROV1 ovarian = test system: IGROV1 ovarian
KM12 colon = test system: KM12 colon
LOX IMVI melanoma = test system: LOX IMVI melanoma
M14 melanoma = test system: M14 melanoma
MALME-3M melanoma = test system: MALME-3M melanoma
MCF7 breast = test system: MCF7 breast
MDA-MB-231 breast = test system: MDA-MB-231 breast
MDA-MB-435 = test system: MDA-MB-435
MDA-N = test system: MDA-N
MOLT-4 leukemia = test system: MOLT-4 leukemia
NCI-H226 lung = test system: NCI-H226 lung
NCI-H23 lung = test system: NCI-H23 lung
NCI-H460 lung = test system: NCI-H460 lung
NCI-H522 lung = test system: NCI-H522 lung
NCI/ADR-RES ovarian = test system: NCI/ADR-RES ovarian
OVCAR-3 ovarian = test system: OVCAR-3 ovarian
OVCAR-4 ovarian = test system: OVCAR-4 ovarian
OVCAR-5 ovarian = test system: OVCAR-5 ovarian
OVCAR-8 ovarian = test system: OVCAR-8 ovarian
PC-3 prostate = test system: PC-3 prostate
RXF 393 renal = test system: RXF 393 renal
SF-268 CNS = test system: SF-268 CNS
SF-295 CNS = test system: SF-295 CNS
SF-539 CNS = test system: SF-539 CNS
SK-MEL-2 melanoma = test system: SK-MEL-2 melanoma
SK-MEL-28 melanoma = test system: SK-MEL-28 melanoma
SK-MEL-5 melanoma = test system: SK-MEL-5 melanoma
SK-OV-3 ovarian = test system: SK-OV-3 ovarian
SN12C renal = test system: SN12C renal
SNB-19 CNS = test system: SNB-19 CNS
SNB-75 CNS = test system: SNB-75 CNS
SR leukemia = test system: SR leukemia
SW-620 colon = test system: SW-620 colon
T-47D breast = test system: T-47D breast
TK-10 renal = test system: TK-10 renal
U251 CNS = test system: U251 CNS
UACC-257 melanoma = test system: UACC-257 melanoma
UACC-62 melanoma = test system: UACC-62 melanoma
UO-31 renal = test system: UO-31 renal
K-562 leukemia = test system: K-562 leukemia
RPMI-8226 leukemia = test system: RPMI-8226 leukemia

CCN1C/C(=C\c2cc(OC)c(OC)c(OC)c2)C2=NN(c3ccccc3)C(c3cc(OC)c(OC)c(OC)c3)C2C1 (centres undefined)
TGI (786-0 renal): 1.48 µM | TGI (A498 renal): 43.6 µM | TGI (A549 NSCLC): 4.9 µM | TGI (ACHN renal): > 36 µM | TGI (BT-549 breast): 22 µM | TGI (CAKI-1 renal): 3.85 µM | TGI (CCRF-CEM leukemia): 8.3 µM | TGI (COLO 205 colon): 7.13 µM | TGI (DU-145 prostate): 23.6 µM | TGI (EKVX NSCLC): 11.4 µM | TGI (HCC-2998 colon): 2.25 µM | TGI (HCT-116 colon): 5.77 µM | TGI (HCT-15 colon): 25.7 µM | TGI (HL-60(TB) leukemia): > 23.8 µM | TGI (HOP-62 NSCLC): 2.51 µM | TGI (HOP-92 NSCLC): 13.5 µM | TGI (HS 578T breast): 1.32 µM | TGI (HT29 colon): 6.8 µM | TGI (IGROV1 ovarian): 21.3 µM | TGI (KM12 colon): > 36 µM | TGI (LOX IMVI melanoma): 10.6 µM | TGI (M14 melanoma): 6.48 µM | TGI (MALME-3M melanoma): 1.64 µM | TGI (MCF7 breast): > 38.1 µM | TGI (MDA-MB-231 breast): 1.54 µM | TGI (MDA-MB-435): 6.51 µM | TGI (MDA-N): 10.8 µM | TGI (MOLT-4 leukemia): > 19.8 µM | TGI (NCI-H226 lung): 11.1 µM | TGI (NCI-H23 lung): 19.2 µM | TGI (NCI-H460 lung): 2.24 µM | TGI (NCI-H522 lung): 3.06 µM | TGI (NCI/ADR-RES ovarian): 7.4 µM | TGI (OVCAR-3 ovarian): > 25.1 µM | TGI (OVCAR-4 ovarian): 24.6 µM | TGI (OVCAR-5 ovarian): 12.3 µM | TGI (OVCAR-8 ovarian): 4.72 µM | TGI (PC-3 prostate): 2.46 µM | TGI (RXF 393 renal): 2.2 µM | TGI (SF-268 CNS): 1.58 µM | TGI (SF-295 CNS): 18.5 µM | TGI (SF-539 CNS): 1.91 µM | TGI (SK-MEL-2 melanoma): 31.9 µM | TGI (SK-MEL-28 melanoma): 2 µM | TGI (SK-MEL-5 melanoma): 15.5 µM | TGI (SK-OV-3 ovarian): 6.38 µM | TGI (SN12C renal): 11.3 µM | TGI (SNB-19 CNS): 6 µM | TGI (SNB-75 CNS): 1.32 µM | TGI (SR leukemia): 65.5 µM | TGI (SW-620 colon): > 100 µM | TGI (T-47D breast): 18 µM | TGI (TK-10 renal): 6.14 µM | TGI (U251 CNS): 1.85 µM | TGI (UACC-257 melanoma): 12.7 µM | TGI (UACC-62 melanoma): > 54.2 µM | TGI (UO-31 renal): 6.68 µM

O=P(O)(OP(=O)(O)c1ccccc1)c1ccccc1 (tested in a mixture with another compound)
TGI (786-0 renal): > 100 µM | TGI (A498 renal): > 100 µM | TGI (A549 NSCLC): > 100 µM | TGI (ACHN renal): > 100 µM | TGI (BT-549 breast): > 100 µM | TGI (CAKI-1 renal): > 100 µM | TGI (CCRF-CEM leukemia): > 100 µM | TGI (COLO 205 colon): > 100 µM | TGI (DU-145 prostate): > 100 µM | TGI (EKVX NSCLC): > 100 µM | TGI (HCC-2998 colon): > 100 µM | TGI (HCT-116 colon): > 100 µM | TGI (HCT-15 colon): > 100 µM | TGI (HL-60(TB) leukemia): > 100 µM | TGI (HOP-62 NSCLC): > 100 µM | TGI (HOP-92 NSCLC): > 100 µM | TGI (HS 578T breast): > 100 µM | TGI (HT29 colon): > 100 µM | TGI (IGROV1 ovarian): > 100 µM | TGI (K-562 leukemia): > 100 µM | TGI (KM12 colon): > 100 µM | TGI (LOX IMVI melanoma): > 100 µM | TGI (M14 melanoma): > 100 µM | TGI (MALME-3M melanoma): > 100 µM | TGI (MCF7 breast): > 100 µM | TGI (MDA-MB-231 breast): > 100 µM | TGI (MDA-MB-435): > 100 µM | TGI (MDA-N): > 100 µM | TGI (NCI-H226 lung): > 100 µM | TGI (NCI-H23 lung): > 100 µM | TGI (NCI-H460 lung): > 100 µM | TGI (NCI-H522 lung): > 100 µM | TGI (NCI/ADR-RES ovarian): > 100 µM | TGI (OVCAR-3 ovarian): > 100 µM | TGI (OVCAR-4 ovarian): > 100 µM | TGI (OVCAR-5 ovarian): > 100 µM | TGI (OVCAR-8 ovarian): > 100 µM | TGI (PC-3 prostate): > 100 µM | TGI (RPMI-8226 leukemia): > 100 µM | TGI (RXF 393 renal): > 100 µM | TGI (SF-268 CNS): > 100 µM | TGI (SF-295 CNS): > 100 µM | TGI (SK-MEL-2 melanoma): > 100 µM | TGI (SK-MEL-28 melanoma): > 100 µM | TGI (SK-MEL-5 melanoma): > 100 µM | TGI (SK-OV-3 ovarian): > 100 µM | TGI (SN12C renal): > 100 µM | TGI (SNB-19 CNS): > 100 µM | TGI (SNB-75 CNS): > 100 µM | TGI (SR leukemia): > 100 µM | TGI (SW-620 colon): > 100 µM | TGI (T-47D breast): > 100 µM | TGI (TK-10 renal): > 100 µM | TGI (U251 CNS): > 100 µM | TGI (UACC-257 melanoma): > 100 µM | TGI (UACC-62 melanoma): > 100 µM | TGI (UO-31 renal): > 100 µM
